From patent publication US20230078764A1 (Yumanity Therapeutics, Inc., priority 2019, published 2023)

What was measured:
human SCD1 = biological target: T1, human SCD1 (Homo sapiens, UniProt O00767); assay: Growth inhibition of yeast strain expressing human SCD1 as sole desaturase (OLE1 deleted), OD600 readout; type: cell-based; settings: yeast strain expressing human SCD1 as sole desaturase; growth (OD600) after 40 h at 30° C.; read-out: SCD1 IC50
T1 construct: expressed in transfected cells; host or cells: yeast strain with OLE1 deleted, plasmid-borne human SCD1 (selected in SD-Ura)
T1 sequence (O00767 1-359): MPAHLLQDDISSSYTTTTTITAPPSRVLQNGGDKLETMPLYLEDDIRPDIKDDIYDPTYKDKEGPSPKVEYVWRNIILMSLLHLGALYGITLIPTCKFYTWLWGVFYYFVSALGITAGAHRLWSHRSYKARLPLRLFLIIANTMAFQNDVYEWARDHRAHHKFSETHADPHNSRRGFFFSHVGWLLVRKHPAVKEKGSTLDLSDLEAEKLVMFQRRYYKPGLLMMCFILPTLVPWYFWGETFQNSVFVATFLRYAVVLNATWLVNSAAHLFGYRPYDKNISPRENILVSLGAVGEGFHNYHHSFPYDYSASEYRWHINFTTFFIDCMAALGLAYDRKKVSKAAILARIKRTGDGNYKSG

human SCD5 = biological target: T2, human SCD5 (Homo sapiens, UniProt Q86SK9); assay: Growth inhibition of yeast strain expressing human SCD5 as sole desaturase (OLE1 deleted), OD600 readout; type: cell-based; settings: yeast strain expressing human SCD5 as sole desaturase; growth (OD600) after 40 h at 30° C.; read-out: SCD5 IC50
T2 construct: expressed in transfected cells; host or cells: yeast strain with OLE1 deleted, plasmid-borne human SCD5 (selected in SD-Ura)
T2 sequence (Q86SK9 1-330): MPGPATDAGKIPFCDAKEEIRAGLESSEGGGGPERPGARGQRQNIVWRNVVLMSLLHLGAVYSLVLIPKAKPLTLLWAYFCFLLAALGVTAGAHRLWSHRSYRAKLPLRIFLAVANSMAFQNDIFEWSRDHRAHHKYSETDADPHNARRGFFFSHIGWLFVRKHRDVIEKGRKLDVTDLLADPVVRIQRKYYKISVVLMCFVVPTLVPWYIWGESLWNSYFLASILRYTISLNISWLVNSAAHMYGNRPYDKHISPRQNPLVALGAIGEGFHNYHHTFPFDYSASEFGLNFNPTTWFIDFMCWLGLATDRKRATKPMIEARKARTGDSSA

SMILES | IC50 (human SCD1) [µM] | IC50 (human SCD5) [µM]
Cn1cc(C(=O)Nc2ccc(Oc3cccc(Cl)c3)cn2)ccc1=O [Compound 161, N-[5-(3-chlorophenoxy)pyridin-2-yl]-1-methyl-6-oxo-1,6-dihydropyridine-3-carboxamide] | > 45 | 1.64
Cn1nc(C(=O)Nc2ccc(Oc3cccc(Cl)c3)cn2)ccc1=O [Compound 163, N-[5-(3-chlorophenoxy)pyridin-2-yl]-1-methyl-6-oxo-1,6-dihydropyridazine-3-carboxamide] | > 45 | 0.24
CCn1cc(C(=O)Nc2ccc(Oc3cccc(Cl)c3)cn2)ccc1=O [Compound 165, N-[5-(3-chlorophenoxy)pyridin-2-yl]-1-ethyl-6-oxo-1,6-dihydropyridine-3-carboxamide] | 14.2 | 3.31
CC(C)n1cc(C(=O)Nc2ccc(Oc3cccc(Cl)c3)cn2)ccc1=O [Compound 166, N-[5-(3-chlorophenoxy)pyridin-2-yl]-6-oxo-1-(propan-2-yl)-1,6-dihydropyridine-3-carboxamide] | 14.7 | 9.36
Cn1cc(C(=O)Nc2ccc(Oc3ccc(F)c(Cl)c3)cn2)ccc1=O [Compound 167, N-[5-(3-chloro-4-fluorophenoxy)pyridin-2-yl]-1-methyl-6-oxo-1,6-dihydropyridine-3-carboxamide] | 25.9 | 0.93
Cn1nc(C(=O)Nc2ccc(Oc3ccc(F)c(Cl)c3)cn2)ccc1=O [Compound 168, N-[5-(3-chloro-4-fluorophenoxy)pyridin-2-yl]-1-methyl-6-oxo-1,6-dihydropyridazine-3-carboxamide] | > 45 | 1.72
CCn1cc(C(=O)Nc2ccc(Oc3ccc(F)c(Cl)c3)cn2)ccc1=O [Compound 169, N-[5-(3-chloro-4-fluorophenoxy)pyridin-2-yl]-1-ethyl-6-oxo-1,6-dihydropyridine-3-carboxamide] | > 45 | 2.48
CN1N=C(C(=O)Nc2ccc(OCc3cccc(Cl)c3)cn2)CCC1=O [Compound 170, N-(5-(3-chlorobenzyloxy)pyridin-2-yl)-1-methyl-6-oxo-1,4,5,6-tetrahydropyridazine-3-carboxamide] | > 45 | 1.07
Cn1nc(C(=O)Nc2ccc(OCc3cccc(Cl)c3)cn2)ccc1=O [Compound 171, N-(5-(3-chlorobenzyloxy)pyridin-2-yl)-1-methyl-6-oxo-1,6-dihydropyridazine-3-carboxamide] | > 45 | 0.86
Cn1cc(C(=O)Nc2ccc(COc3cccc(Cl)c3)cn2)ccc1=O [Compound 172, N-(5-((3-chlorophenoxy)methyl)pyridin-2-yl)-1-methyl-6-oxo-1,6-dihydropyridine-3-carboxamide] | 2.29 | 0.37
Cn1cc(C(=O)Nc2ccc(CNc3cccc(Cl)c3)cn2)ccc1=O [Compound 173, N-(5-((3-Chlorophenylamino)methyl)pyridin-2-yl)-1-methyl-6-oxo-1,6-dihydropyridine-3-carboxamide] | 1.72 | 0.15
Cn1nc(C(=O)Nc2ccc(CNc3cccc(Cl)c3)cn2)ccc1=O [Compound 174, N-(5-((3-Chlorophenylamino)methyl)pyridin-2-yl)-1-methyl-6-oxo-1,6-dihydropyridazine-3-carboxamide] | 7.56 | 0.08
Cn1cc(C(=O)Nc2ccc(Cc3cccc(F)c3)nn2)ccc1=O [Compound 176, N-(6-(3-fluorobenzyl)pyridazin-3-yl)-1-methyl-6-oxo-1,6-dihydropyridine-3-carboxamide] | > 45 | 2.66
CN1N=C(C(=O)Nc2ccc(Cc3cc(Cl)ccc3F)nn2)CCC1=O [Compound 177, N-(6-(5-chloro-2-fluorobenzyl)pyridazin-3-yl)-1-methyl-6-oxo-1,4,5,6-tetrahydropyridazine-3-carboxamide] | > 45 | 5.49
